The NIST ThermoML archive (doi:10.1016/j.jct.2014.04.016)
Values joined by “and” are separate entries in the source; they are usually repeats but may differ in a detail not shown here. Equal entries are not always repeated.

Assay: xn = mol fraction of the nth substance listed
Details: 100 kPa; for electrical conductivity: Alternating current cell with electrodes; for mass density: Vibrating tube method; for viscosity: Concentric cylinders viscometry

CCCCCCCCOS(=O)(=O)[O-].CCn1cc[n+](C)c1 [1-ethyl-3-methylimidazolium octyl sulfate] + O
Details	electrical conductivity	mass density [kg/m3]	viscosity
251.8 K, Glass, x1 = 0.5001	0.013 S/m	–	–
251.9 K, Glass, x1 = 0.5001	0.014 S/m	–	–
254.1 K, Glass, x1 = 0.5001	0.016 S/m and 0.017 S/m	–	–
255.1 K, Glass, x1 = 0.5001	0.018 S/m	–	–
256.1 K, Glass, x1 = 0.5001	0.02 S/m	–	–
257.1 K, Glass, x1 = 0.4688	0.023 S/m	–	–
257.1 K, Glass, x1 = 0.5001	0.022 S/m	–	–
258.1 K, Glass, x1 = 0.5001	0.023 S/m	–	–
259.1 K, Glass, x1 = 0.4688	0.028 S/m	–	–
259.1 K, Liquid, x1 = 0.5001	0.025 S/m	–	–
261.1 K, Glass, x1 = 0.4688	0.032 S/m and 0.031 S/m	–	–
261.1 K, Liquid, x1 = 0.0803	0.56 S/m	–	–
261.1 K, Liquid, x1 = 0.5001	0.029 S/m	–	–
263.1 K, Glass, x1 = 0.2119	0.228 S/m	–	–
263.1 K, Glass, x1 = 0.4688	0.036 S/m and 0.038 S/m	–	–
263.1 K, Liquid, x1 = 0.0586	0.703 S/m	–	–
263.1 K, Liquid, x1 = 0.0803	0.611 S/m	–	–
263.1 K, Liquid, x1 = 0.5001	0.034 S/m	–	–
264.1 K, Glass, x1 = 0.1197	0.479 S/m	–	–
265.1 K, Liquid, x1 = 0.0803	0.667 S/m and 0.622 S/m	–	–
266.1 K, Glass, x1 = 0.4688	0.045 S/m	–	–
266.1 K, Liquid, x1 = 0.0803	0.688 S/m	–	–
267.1 K, Glass, x1 = 0.4688	0.049 S/m	–	–
268.1 K, Glass, x1 = 0.1197	0.566 S/m	–	–
268.1 K, Glass, x1 = 0.2119	0.29 S/m	–	–
268.1 K, Glass, x1 = 0.4108	0.085 S/m	–	–
268.1 K, Glass, x1 = 0.4688	0.051 S/m	–	–
268.1 K, Liquid, x1 = 0.0401	0.898 S/m	–	–
268.1 K, Liquid, x1 = 0.0586	0.867 S/m	–	–
268.1 K, Liquid, x1 = 0.0803	0.755 S/m and 0.753 S/m	–	–
268.1 K, Liquid, x1 = 0.4688	0.052 S/m	–	–
268.1 K, Liquid, x1 = 0.5001	0.048 S/m	–	–
269.1 K, Glass, x1 = 0.1197	0.591 S/m and 0.59 S/m	–	–
269.1 K, Liquid, x1 = 0.0586	0.897 S/m	–	–
269.1 K, Liquid, x1 = 0.1197	–	1084.1	–
269.1 K, Liquid, x1 = 0.4688	0.054 S/m	–	–
269.6 K, Glass, x1 = 0.4108	–	–	16300 mPa·s
269.6 K, Liquid, x1 = 0.4108	–	1107.2	–
270.1 K, Glass, x1 = 0.1197	0.617 S/m and 0.616 S/m	–	19170 mPa·s
270.1 K, Glass, x1 = 0.4108	–	–	5510 mPa·s
270.1 K, Liquid, x1 = 0.0401	0.968 S/m	–	–
270.1 K, Liquid, x1 = 0.1197	–	1083.7	–
270.1 K, Liquid, x1 = 0.4108	–	1107	–
270.1 K, Liquid, x1 = 0.4688	0.059 S/m and 0.058 S/m	–	–
270.6 K, Glass, x1 = 0.4108	–	–	2431 mPa·s
270.6 K, Liquid, x1 = 0.4108	–	1106.7	–
271.1 K, Glass, x1 = 0.1197	0.641 S/m and 0.639 S/m	–	16390 mPa·s
271.1 K, Glass, x1 = 0.4108	0.1 S/m	–	1385 mPa·s
271.1 K, Liquid, x1 = 0.0803	0.862 S/m	–	–
271.1 K, Liquid, x1 = 0.1197	–	1083.1	–
271.1 K, Liquid, x1 = 0.4108	–	1106.4	–
271.6 K, Glass, x1 = 0.4108	–	–	889.3 mPa·s
271.6 K, Liquid, x1 = 0.4108	–	1106.1	–
272.1 K, Glass, x1 = 0.1197	0.667 S/m	–	11470 mPa·s
272.1 K, Glass, x1 = 0.4108	0.104 S/m	–	–
272.1 K, Liquid, x1 = 0.0401	1.03 S/m	–	–
272.1 K, Liquid, x1 = 0.1197	0.666 S/m	1082.6	–
272.1 K, Liquid, x1 = 0.4108	–	1105.7	609.1 mPa·s
273.1 K, Glass, x1 = 0.1197	–	–	9033 mPa·s
273.1 K, Glass, x1 = 0.1402	0.597 S/m	–	–
273.1 K, Glass, x1 = 0.2119	0.371 S/m and 0.368 S/m	–	–
273.1 K, Glass, x1 = 0.3076	0.203 S/m	–	–
273.1 K, Glass, x1 = 0.3555	0.147 S/m	–	–
273.1 K, Glass, x1 = 0.4108	0.111 S/m	–	–
273.1 K, Liquid, x1 = 0.0401	1.07 S/m	–	–
273.1 K, Liquid, x1 = 0.0586	1.04 S/m	–	–
273.1 K, Liquid, x1 = 0.0803	0.921 S/m	–	–
273.1 K, Liquid, x1 = 0.1197	0.695 S/m	1082	–
273.1 K, Liquid, x1 = 0.4108	–	1105	564.7 mPa·s
273.1 K, Liquid, x1 = 0.4688	0.073 S/m and 0.07 S/m	–	–
273.1 K, Liquid, x1 = 0.5001	0.066 S/m	–	–
274.1 K, Glass, x1 = 0.1197	–	–	6783 mPa·s
274.1 K, Liquid, x1 = 0.1197	0.723 S/m	1081.5	–
274.1 K, Liquid, x1 = 0.4108	0.117 S/m	1104.3	524.2 mPa·s
275.1 K, Glass, x1 = 0.1197	–	–	4354 mPa·s
275.1 K, Liquid, x1 = 0.1197	0.75 S/m	1080.9	–
275.1 K, Liquid, x1 = 0.4108	0.123 S/m	1103.6	487.1 mPa·s
276.1 K, Glass, x1 = 0.1197	–	–	2361 mPa·s
276.1 K, Glass, x1 = 0.3555	0.169 S/m	–	–
276.1 K, Liquid, x1 = 0.0803	1.02 S/m	–	–
276.1 K, Liquid, x1 = 0.1197	–	1080.3	–
276.1 K, Liquid, x1 = 0.4688	0.086 S/m	–	–
277.1 K, Glass, x1 = 0.1197	–	–	1248 mPa·s
277.1 K, Glass, x1 = 0.3555	0.181 S/m	–	–
277.1 K, Liquid, x1 = 0.1197	0.807 S/m and 0.806 S/m	1079.7	–
277.6 K, Glass, x1 = 0.3555	–	–	5137 mPa·s
277.6 K, Liquid, x1 = 0.3555	–	1100	–
277.9 K, Glass, x1 = 0.3555	–	–	2995 mPa·s and 2875 mPa·s
277.9 K, Liquid, x1 = 0.3555	–	1099.9	–
278.1 K, Glass, x1 = 0.1402	0.731 S/m and 0.732 S/m	–	–
278.1 K, Glass, x1 = 0.1605	0.677 S/m	–	–
278.1 K, Glass, x1 = 0.2119	0.46 S/m	–	–
278.1 K, Glass, x1 = 0.3076	0.259 S/m and 0.258 S/m	–	–
